Reference: US10052331B2, “3-(3H-imidazo[4,5-C]pyridin-2-yl)-1H-pyrazolo[3,4-C]pyridine and therapeutic uses thereof” (Samumed, LLC, priority 2014, dated 2018)
pEC50, pIC50: −log10 of the molar value.

Columns and labels:
Assay type in all cases: cell-based
[1] = test system: primary human fibroblasts derived from IPF patients (LL29 cells); assay: Inhibition of fibrotic process: αSMA staining in TGF-β1-treated primary human fibroblasts from IPF patients (LL29 cells); conditions: Fibroblast, 96 h, LL29 cells treated with TGF-β1 (20 ng/mL), 4 days, 11-point dose-response from 10 μM to 1.87 nM, read-out: Inhibition of fibrosis EC50
In short: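 LL29 IPF lung fibroblasts in F12 with 1% FBS, compound (11-point, 10 μM to 1.87 nM, 0.1% DMSO) plus TGF-β1 20 ng/mL for 4 days at 37° C. αSMA-positive % of SYTOX-negative cells by immunofluorescence imaging, normalized to TGF-β1 wells; EC50 from non-linear regression of triplicates.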

[2] = test system: Wnt activity (Wnt-responsive Sp5 promoter-luciferase reporter in SW480 cells); assay: Wnt activity screening assay: Sp5-Luc reporter gene in SW480 colon carcinoma cells; conditions: Homo sapiens
In short: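 IC50 values come from variable-slope four-parameter fits of luciferase signal normalized to DMSO wells. Stable Sp5-Luc reporter SW480 colon carcinoma cells were exposed to compounds in a 3-fold dilution series (source plates from 10 mM stock) for forty-two hours at 37 °C.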

[3] = test system: primary human mesenchymal stem cells (hMSCs); assay: Chondrogenesis induction in primary human mesenchymal stem cells (nodule imaging, Rhodamine B/Nile Red); conditions: 144 h, 6 days; for EC (100% TGF-beta3 activity): concentration required to induce chondrogenesis equivalent to TGF-β3 positive control, read-out: Conc (nM) of 100% TGF-β3 activity; for Emax: relative to TGF-β3 (10 ng/mL) positive control, read-out: Max. Activity as % TGF-β3 activity
Protocol: The above synthesized compounds were screened using primary human mesenchymal stem cells (hMSCs) to determine their ability to induce chondrogenesis (process by which cartilage is developed).
Primary human mesenchymal stem cells (hMSCs) were purchased from Lonza (Walkersville, Md.) and expanded in Mesenchymal Stem Cell Growth Media (Lonza). Cells between passage 3 and 6 were used for the experiments.
Each compound was dissolved in DMSO as a 10 mM stock and used to prepare compound source plates. Serial dilution (1:3, 6-point dose-response curves from 2700 nM to 10 nM) and compound transfer was performed using the ECHO 550 (Labcyte, Sunnyvale, Calif.) into 96-well clear bottom assay plates (Greiner Bio-One) with appropriate DMSO backfill for a final DMSO concentration of 0.03%. hMSCs were plated at 20,000 cells/well in 250 μL/well Incomplete Chondrogenic Induction Medium (Lonza; DMEM, dexamethasone, ascorbate, insulin-transferrin-selenium [ITS supplement], gentamycin-amphotericin [GA-1000], sodium pyruvate, proline and L-glutamine). TGF-β3 (10 ng/mL) was used as a positive control for differentiation while negative control wells were treated with 75 nL DMSO for normalization and calculating EC50 values. Cells were incubated at 37° C. and 5% CO2 for 6 days. To image chondrogenic nodules, the cells were fixed using 4% formaldehyde (Electron Microscopy Sciences), and stained with 2 μg/mL Rhodamine B (Sigma-Aldrich) and 20 μM Nile Red (Sigma-Aldrich) [Johnson K., et. al, A Stem Cell-Based Approach to Cartilage Repair, Science, (2012), 336(6082), 717-721]. The nodules imaged (4 images per well at 4× magnification) by excitation at 531 nm and emission at 625 nm and quantified using the CellInsight CX5 (Thermo Scientific). Number of nodules in each well was normalized to the average of 3 DMSO treated wells on the same plate using Excel (Microsoft Inc.). The normalized averages (fold change over DMSO) of 3 replicate wells for each compound concentration were calculated. Due to solubility limitations of some of the compounds, curve fitting was incomplete leading to inaccurate EC50 determinations.
Using TGF-03 as a positive control, the concentration of test compounds required to induce equivalent levels of chondrogenesis is reported. In addition, the maximum activity of each compound and the respective dose that each compound reached maximum chondrogenesis activity is reported.

Row | Structure (SMILES) | pEC50 [1] | pIC50 [2] | EC (100% TGF-beta3 activity) [3] | Emax [3]
1 | CCNCc1cncc(-c2cc3c(-c4nc5c(-c6cccc(F)c6)cncc5[nH]4)n[nH]c3cn2)c1 [Compound 6, N-((5-(3-(7-(3-Fluorophenyl)-3H-imidazo[4,5-c]pyridin-2-yl)-1H-pyrazolo[3,4-c]pyridin-5-yl)pyridin-3-yl)methyl)ethanamine] | 6.29 | 7.87 | 136 nM | 300%
2 | CCNCc1cncc(-c2cc3c(-c4nc5c(-c6ccc(F)cc6)cncc5[nH]4)n[nH]c3cn2)c1 [Compound 32, N-((5-(3-(7-(4-Fluorophenyl)-3H-imidazo[4,5-c]pyridin-2-yl)-1H-pyrazolo[3,4-c]pyridin-5-yl)pyridin-3-yl)methyl)ethanamine] | ≥ 8.05 | 7.84 | 110 nM | –
3 | FC1(F)CCN(Cc2cncc(-c3cc4c(-c5nc6c(N7CCCCC7)cncc6[nH]5)n[nH]c4cn3)c2)C1 [Compound 181, 5-(5-((3,3-Difluoropyrrolidin-1-yl)methyl)pyridin-3-yl)-3-(7-(piperidin-1-yl)-3H-imidazo[4,5-c]pyridin-2-yl)-1H-pyrazolo[3,4-c]pyridine] | ≥ 8.05 | 7.35 | 100 nM | 10%
4 | CCCC(=O)Nc1cncc(-c2cc3c(-c4nc5c(-c6ccsc6)cncc5[nH]4)n[nH]c3cn2)c1 [Compound 251, N-(5-(3-(7-(Thiophen-3-yl)-3H-imidazo[4,5-c]pyridin-2-yl)-1H-pyrazolo[3,4-c]pyridin-5-yl)pyridin-3-yl)butyramide] | ≥ 8.05 | 7.48 | 42 nM | –
5 | CCC(=O)Nc1cncc(-c2cc3c(-c4nc5c(-c6cccs6)cncc5[nH]4)n[nH]c3cn2)c1 [Compound 287, N-(5-(3-(7-(Thiophen-2-yl)-3H-imidazo[4,5-c]pyridin-2-yl)-1H-pyrazolo[3,4-c]pyridin-5-yl)pyridin-3-yl)propionamide] | 6.50 | 7.51 | 84.2 nM | 300%
6 | CC(C)CC(=O)Nc1cncc(-c2cc3c(-c4nc5c(-c6ccc(F)s6)cncc5[nH]4)n[nH]c3cn2)c1 [Compound 314, N-(5-(3-(7-(5-Fluorothiophen-2-yl)-3H-imidazo[4,5-c]pyridin-2-yl)-1H-pyrazolo[3,4-c]pyridin-5-yl)pyridin-3-yl)-3-methylbutanamide] | 6.76 | 8.13 | 180 nM | 900%
7 | CC(C)(C)C(=O)Nc1cncc(-c2cc3c(-c4nc5c(-c6ccc(F)s6)cncc5[nH]4)n[nH]c3cn2)c1 [Compound 320, N-(5-(3-(7-(5-Fluorothiophen-2-yl)-3H-imidazo[4,5-c]pyridin-2-yl)-1H-pyrazolo[3,4-c]pyridin-5-yl)pyridin-3-yl)pivalamide] | 6.99 | 8.43 | 41 nM | –
8 | CC(C)Nc1cncc(-c2cc3c(-c4nc5c(-c6cc(F)cc(NCCN(C)C)c6)cncc5[nH]4)n[nH]c3cn2)c1 [Compound 428, N^1-(3-Fluoro-5-(2-(5-(5-(isopropylamino)pyridin-3-yl)-1H-pyrazolo[3,4-c]pyridin-3-yl)-3H-imidazo[4,5-c]pyridin-7-yl)phenyl)-N2,N2-dimethylethane-1,2-diamine] | ≤ 5.00 | 6.76 | – | –
9 | CCCCC(=O)Nc1cncc(-c2cc3c(-c4nc5c(-c6cc(F)cc(NCCN(C)C)c6)cncc5[nH]4)n[nH]c3cn2)c1 [Compound 434, N-(5-(3-(7-(3-((2-(Dimethylamino)ethyl)amino)-5-fluorophenyl)-3H-imidazo[4,5-c]pyridin-2-yl)-1H-pyrazolo[3,4-c]pyridin-5-yl)pyridin-3-yl)pentanamide] | 5.08 | 6.64 | – | –
10 | CN(C)CCNc1cc(F)cc(-c2cncc3[nH]c(-c4n[nH]c5cnc(-c6cncc(CNCC7CCCC7)c6)cc45)nc23)c1 [Compound 440, N^1-(3-(2-(5-(5-(((Cyclopentylmethyl)amino)methyl)pyridin-3-yl)-1H-pyrazolo[3,4-c]pyridin-3-yl)-3H-imidazo[4,5-c]pyridin-7-yl)-5-fluorophenyl)-N2,N2-dimethylethane-1,2-diamine] | ≥ 8.05 | 5.92 | – | –
11 | Fc1cccc(-c2cncc3[nH]c(-c4n[nH]c5cnc(C6CCNCC6)cc45)nc23)c1 [Compound 885, 3-(7-(3-Fluorophenyl)-3H-imidazo[4,5-c]pyridin-2-yl)-5-(piperidin-4-yl)-1H-pyrazolo[3,4-c]pyridine] | ≤ 5.00 | < 5.00 | – | –
12 | Fc1cccc(-c2cncc3[nH]c(-c4n[nH]c5cnc(C6=CCNCC6)cc45)nc23)c1 [Compound 886, 3-(7-(3-Fluorophenyl)-3H-imidazo[4,5-c]pyridin-2-yl)-5-(1,2,3,6-tetrahydropyridin-4-yl)-1H-pyrazolo[3,4-c]pyridine] | 7.14 | 5.71 | – | –
13 | Cc1ncc(-c2cc3c(-c4nc5c(-c6cccc(F)c6)cncc5[nH]4)n[nH]c3cn2)n1C [Compound 889, 5-(1,2-Dimethyl-1H-imidazol-5-yl)-3-(7-(3-fluorophenyl)-3H-imidazo[4,5-c]pyridin-2-yl)-1H-pyrazolo[3,4-c]pyridine] | 7.34 | 6.26 | – | –
14 | O=C(CC1CCNCC1)Nc1cncc(-c2cc3c(-c4nc5c(-c6cccc(F)c6)cncc5[nH]4)n[nH]c3cn2)c1 [Compound 893, N-(5-(3-(7-(3-Fluorophenyl)-3H-imidazo[4,5-c]pyridin-2-yl)-1H-pyrazolo[3,4-c]pyridin-5-yl)pyridin-3-yl)-2-(piperidin-4-yl)acetamide] | ≤ 5.00 | < 5.00 | – | –
15 | Oc1cncc(-c2cc3c(-c4nc5c(-c6cccc(F)c6)cncc5[nH]4)n[nH]c3cn2)c1 [Compound 897, 5-(3-(7-(3-Fluorophenyl)-3H-imidazo[4,5-c]pyridin-2-yl)-1H-pyrazolo[3,4-c]pyridin-5-yl)pyridin-3-ol] | 7.49 | 7.23 | – | –
16 | Fc1cccc(-c2cncc3[nH]c(-c4n[nH]c5cnc(-c6ccncc6)cc45)nc23)c1 [Compound 900, 3-(7-(3-Fluorophenyl)-3H-imidazo[4,5-c]pyridin-2-yl)-5-(pyridin-4-yl)-1H-pyrazolo[3,4-c]pyridine] | ≥ 8.05 | 7.19 | – | –
17 | Fc1cccc(-c2cncc3[nH]c(-c4n[nH]c5cnc(-c6ccccn6)cc45)nc23)c1 [Compound 901, 3-(7-(3-Fluorophenyl)-3H-imidazo[4,5-c]pyridin-2-yl)-5-(pyridin-2-yl)-1H-pyrazolo[3,4-c]pyridine] | 6.23 | 6.09 | – | –
18 | CC(C)CC(=O)Nc1cncc(-c2cc3c(-c4nc5c(-c6cc(O)cc(F)c6)cncc5[nH]4)n[nH]c3cn2)c1 [Compound 1280, N-(5-(3-(7-(3-Fluoro-5-hydroxyphenyl)-3H-imidazo[4,5-c]pyridin-2-yl)-1H-pyrazolo[3,4-c]pyridin-5-yl)pyridin-3-yl)-3-methylbutanamide] | ≥ 8.05 | < 5.00 | – | –
19 | COc1cc(F)cc(-c2cncc3[nH]c(-c4n[nH]c5cnc(-c6cncc(NC(=O)CC(C)C)c6)cc45)nc23)c1 [Compound 1324, N-(5-(3-(7-(3-Fluoro-5-methoxyphenyl)-3H-imidazo[4,5-c]pyridin-2-yl)-1H-pyrazolo[3,4-c]pyridin-5-yl)pyridin-3-yl)-3-methylbutanamide] | ≥ 8.05 | 6.26 | – | –
20 | CN(C)CC(=O)Nc1cncc(-c2cc3c(-c4nc5c(-c6cccc(F)c6)cncc5[nH]4)n[nH]c3cn2)c1 [Compound 1367, 2-(Dimethylamino)-N-(5-(3-(7-(3-fluorophenyl)-3H-imidazo[4,5-c]pyridin-2-yl)-1H-pyrazolo[3,4-c]pyridin-5-yl)pyridin-3-yl)acetamide] | 6.84 | 6.29 | – | –
